We go through two molecules from patent publication US10538230B2, “Thiol based resin system for removal of copper ions from hydraulic fluid” (THE BOEING COMPANY, priority 2015, dated 2020).

The nature of this experiment: Removal of Cu[II] ions from hydraulic fluid with thiol compounds of structure (2), ICP measurement. The following applies: Skydrol LD-4 with about 10 ppm copper (II) acetylacetate; for [Cu] T = 24 hr.: after 24 hr. contact with equimolar amount of thiol compound; for [Cu] T = 0 hr.: before addition of the thiol compound. As for the experimental part: Copper (II) acetylacetate is added to a sample of hydraulic fluid (e.g., Skydrol® LD-4 (Eastman Chemical Co. (Kingsport, Tenn. [US])), though any phosphate ester hydraulic fluid is suitable) to provide a final concentration of about 10 ppm copper (II) acetylacetate in the fluid. The amount of copper (II) is measured in the solution using an Inductively Coupled Plasma Spectrometer (ICP). An equimolar amount of a thiol compound of structure (2) is added to a portion of the copper (II) acetate-hydraulic fluid solution and the solution-mixture is mixed using a vortex mixer for 1.5 minutes. The solution-mixture is allowed to stand for 24 hours and the copper (II) content present in the solution is measured using an Inductively Coupled Plasma Spectrometer (ICP). The amount of copper sequestered or complexed by the thiol compound is determined from the difference in the copper (II) concentrations before and after addition of the thiol compound.
Table 5 presents results of Copper (II) content in aliquots of hydraulic fluid (Skydrol® LD-4) containing copper (II) acetylacetate to a final concentration of about 10 ppm copper (II) acetylacetate and contacted with an equimolar amount of the indicated thiol compounds for 24 hours.

With `Sc1nnc(S)s1` [I, 1,3,4-Thiadiazole-2,5-dithiol], the “[Cu] T = 24 hr.” value was 7.9 ppm and the “[Cu] T = 0 hr.” value was found to be 10.8 ppm.

`Sc1nnc(SSc2nnc(S)s2)s1` [II, 5,5′-Dithiobis(1,3,4-Thiadiazole-2(3H)-thione)]: the “[Cu] T = 24 hr.” value was determined as 6.4 ppm and the “[Cu] T = 0 hr.” value stood at 11.1 ppm.
